From patent publication US12329758B2, “Methods for the treatment of psoriatic arthritis” (Alfasigma S.p.A., priority 2018, dated 2025) come the findings set out here.

For experiment [1], the system named is moderately to severely active PsA. The experiment in a line: Phase 2 clinical study NCT03101670, Minimal Disease Activity (MDA). The experiment is classed as in vivo, human. The following applies: 200 mg q.d. The text has this:
As used herein, the term ‘MDA’ refers to the Minimal Disease Activity, which is a measure for disease remission. For the purpose of the present invention a patient will be classified as having achieved MDA when 5 out of 7 of the following criteria are met: • TJC68 ≤1 • SJC66 ≤1 • PASI ≤1 or BSA ≤3% • Patient's Global Assessment of PsA pain intensity score ≤15 (0-100 mm VAS) • Patient's Global Assessment of Disease Activity ≤20 (0-100 mm VAS) • HAQ-DI ≤0.5 • SPARCC Enthesitis Index ≤1.
(§1) This is a multicenter, Phase 2, double-blind, placebo-controlled study in subjects with moderately to severely active PsA who have an inadequate response or are intolerant to conventional disease-modifying therapy. […] Randomization to treatment groups are stratified by current cDMARD use (yes or no) and prior anti-TNF pharmaceutical use (yes or no).
The disease activity in PsA will be measured using the MDA, which is a measure to indicate disease remission. The MDA is based on a composite score of 7 domains. A patient will be classified as having achieved MDA when 5 out of 7 of the following criteria are met: • TJC68 ≤1 • SJC66 ≤1 • PASI ≤1 or BSA ≤3% • Patient's Global Assessment of PsA pain intensity score ≤15 (0-100 mm VAS) • Patient's Global Assessment of Disease Activity ≤20 (0-100 mm VAS) • HAQ-DI ≤0.5 • SPARCC Enthesitis Index ≤1

Experiment [2] has as its system enthesitis in PsA patients. As to the kind of experiment: Phase 2 clinical study NCT03101670, enthesitis by SPARCC Enthesitis Index. The following applies: human, in vivo. On the procedure: As used herein, the term ‘SPARCC Enthesitis Index’ refers to a clinical scoring after examination of (entheseal) tenderness at 16 peripheral sites, which are evaluated for tenderness by palpation, and scored 0 (non-tender) or 1 (tender). The total enthesitis score is the sum of all site scores and is maximally 16. The higher the score, the higher the enthesitis burden. (Maksymowych W P et al. Development and validation of the Spondyloarthritis Research Consortium of Canada (SPARCC) Enthesitis Index. Ann Rheum Dis 2009; 68:948-53)
as §1
Enthesitis is assessed using the SPARCC Enthesitis Index. Sixteen body sites is evaluated for tenderness by palpation, and scored with 0 (non-tender) or 1 (tender). The total enthesitis score is the sum of all site scores and is maximally 16. The higher the score, the higher the enthesitis burden.
Enthesitis is assessed using the SPARCC Enthesitis Index and Leeds Enthesitis Index (LEI). The Enthesitis parameters are analyzed only in the subpopulation of subjects who have enthesitis at baseline (LEI >0). […]

For experiment [3], the system named is moderately to severely active PsA. The experiment in a line: Phase 2 clinical study NCT03101670, physical function (HAQ-DI). The experiment is classed as in vivo, human. The note with it: 200 mg q.d. The source says: As used herein, the term 'HAQ-ID' refers to the Health Assessment Questionnaire […] Disability Index, which is a measure for the physical functioning of a patient. The HAQ-DI is a 20-question instrument assessing the degree of difficulty a person has in accomplishing tasks in 8 function areas (B. Bruce and J. Fries, “The Stanford Health Assessment Questionnaire: dimensions and practical applications,” Health Qual Life Outcomes, p. 1:20, 2003). The HAQ-DI total score ranges from 0 to 3 with higher scores indicating greater dysfunction. This is a multicenter, Phase 2, double-blind, placebo-controlled study in subjects with moderately to severely active PsA who have an inadequate response or are intolerant to conventional disease-modifying therapy. […] Randomization to treatment groups are stratified by current […] use (yes or no) and prior anti-TNF pharmaceutical use (yes or no). The HAQ-DI is used to monitor the subject's self-assessed physical function or disability. This 20-question instrument assesses the degree of difficulty a person has in accomplishing tasks in 8 function areas (getting dressed, arising, eating, walking, […], hygiene, reaching, gripping, errands and chores). Responses are scored on a 4-point Likert scale from 0, indicating no difficulty, to 3, indicating inability to perform a task in that area. The need for aids/devices or help from another person is also recorded. The HAQ-DI total score ranges from 0 to 3 with higher scores indicating greater dysfunction. HAQ-DI is scored on a scale from 0 to 3 and changes from baseline are reported. A decrease by at least 0.22 points versus the baseline is considered clinically meaningful.

On to `O=C(Nc1nc2cccc(-c3ccc(CN4CCS(=O)(=O)CC4)cc3)n2n1)C1CC1` [compound I, cyclopropanecarboxylic acid {5-[4-(1,1-dioxo-thiomorpholin-4-ylmethyl)-phenyl]-[1,2,4]triazolo[1,5-a]pyridin-2yl}-amide], for which the MDA in experiment [1] (Week 12) turned out to be 21.5%; in experiment [1] (Week 16) it was 23.1%. In experiment [2], the “effect on enthesitis compared with placebo” value is reported as “improved enthesitis compared with placebo”. In addition, the “HAQ-DI (change from baseline)” value was −0.19 in experiment [3] (Week 1); −0.30 in experiment [3] (Week 2); −0.44 in experiment [3] (Week 4); −0.50 in experiment [3] (Week 8); −0.53 in experiment [3] (Week 12); −0.57 in experiment [3] (Week 16).
